# In patent publication US20240217936A1, “5-BENZY[…] AND PREPARATION METHOD THEREFOR AND USE THEREOF” (WEST CHINA HOSPITAL, SICHUAN UNIVERSITY, priority 2021, published 2024):
# Counter-ions that a name gives are not always drawn.
# Legend:
# [1] = Degradation of prodrug in rat plasma (release of dexmedetomidine, HPLC); assay type: in vitro ADME; conditions: 37° C.
# Procedure: The test prodrug was formulated as a 1 mg/mL of physiological saline solution, and then 100 μL of the prodrug solution was added to 900 μL of rat plasma. The test solution was vortexed for 30 s before incubation at 37° C. 50 μL of drug-containing plasma was collected at 0.5 min, 1 min, 2 min, 3 min, 5 min, 10 min, 15 min, 20 min, 30 min, and 60 min, respectively, to which was immediately added 150 μL of acetonitrile to terminate the enzymatic reaction, followed by adding the solution of internal standard telmisartan in methanol (30 μL, 20 μg/mL). Then, the resultant solution was centrifuged at 20000 rpm and 4° C. for 10 min. 100 μL of the supernatant was injected for detection by HPLC, and the concentration of dexmedetomidine was determined by an internal standard method. The degradation rate of the prodrug was calculated based on the concentration of dexmedetomidine. The chromatographic conditions are: Swell XDB C18 column (150 mm×4.6 mm, 5 μm); column temperature 30° C.; using gradient elution (see Table 1), mobile phase A: methanol, mobile phase B: 0.1% trifluoroacetic acid in water, and mobile phase C: acetonitrile; detection wavelength: 220 nm; flow rate: 1.0 mL/min; injection volume: 30 μL; retention time: 4.7 minutes for dexmedetomidine and 6.7 minutes for internal standard telmisartan. The linear range of dexmedetomidine: 2.5-100 μg/mL. Instruments: Waters 2695 high-performance liquid chromatograph, Waters 2996 photodiode array detector.
# Male SD rats [2] = assay: Hypnotic effect after tail vein injection (loss of righting reflex); assay type: in vivo, rat; conditions: for ED50: Rattus norvegicus, 50% of the dose for the disappearance of righting reflex in rats, tail vein injection; for Onset time: tail vein injection of 2× ED50, loss of righting reflex; for Onset time / Duration: rats; for Duration: tail vein injection of 2× ED50, until recovery of righting reflex
# Procedure: Male SD rats, weighing 250-300 g, were randomly divided into groups, with 10 rats in each group. […] The onset times and the duration of hypnosis were recorded.
# Male SD rats [3] = assay: Blood pressure change after tail vein injection (mean arterial pressure); conditions: dosage 2× ED50, injection within 15 seconds, 60 min recording, rats under isoflurane
# Procedure: Male SD rats weighing 250-300 g were randomly divided into groups, with 10 rats in each group. General anesthesia was maintained by inhaling isoflurane. By intubating via femoral artery, blood pressure was monitored using the BL-420N biological signal collection and analysis system. minutes after blood pressure stabilization, the baseline mean arterial pressure (MAP0) was measured. Subsequently, the physiological saline solution of each test drug was injected via the tail vein (the dosage of each drug was the same as that in Experiment example 2, with a unified injection […] volume of 1 mL). […] All prodrug molecules were injected within 15 seconds. After injection of each drug, the change in blood pressure was continuously recorded for 60 min. […] The difference MAPΔ+ between the baseline mean arterial pressure (MAP0) and the highest mean arterial pressure (MAPmax) during the 60 min measurement time was calculated; the difference MAPΔ− between the baseline mean arterial pressure (MAP0) and the lowest mean arterial pressure (MAPmin) during the 60 min measurement time was also obtained; both of the difference values were used to calculate the maximum increase rate of mean arterial pressure +Δ%=MAPΔ+/MAP0*100% and the maximum decrease rate of mean arterial pressure −Δ%=MAPΔ−/MAP0*100%, respectively. The maximum increase rate of mean arterial pressure +Δ% and the maximum decrease rate −Δ% reflect the degree of blood pressure change that the body experienced after administration. The larger the value, the greater the blood pressure change that the body experienced.
SMILES,Degradation rate of prodrug % ([1]; 0.5 min),Degradation rate of prodrug % ([1]; 1 min),Degradation rate of prodrug % ([1]; 2 min),Degradation rate of prodrug % ([1]; 3 min),Degradation rate of prodrug % ([1]; 5 min),Degradation rate of prodrug % ([1]; 10 min),ED50 (Male SD rats [2]),Onset time (Male SD rats [2]),Duration (Male SD rats [2]),+Δ % (The maximum increase rate of blood pressure) (Male SD rats [3]),−Δ % (The maximum decrease rate of blood pressure) (Male SD rats [3]),Degradation rate of prodrug % ([1]; 15 min),Degradation rate of prodrug % ([1]; 20 min),Degradation rate of prodrug % ([1]; 30 min),Degradation rate of prodrug % ([1]; 60 min)
Cc1cccc([C@H](C)c2cn(COC(=O)OC(C)C)cn2)c1C [Compound 7-HCl],22%,46%,67%,88%,97%,100%,0.036 mg/kg,4.6 ± 1.3 min,39 ± 11 min,*17 ± 8%,37 ± 8%,,,,
COC(=O)CCC(=O)OCn1cnc([C@@H](C)c2cccc(C)c2C)c1 [Compound 25-HCl],51%,56%,59%,64%,67%,68%,0.041 mg/kg,3.1 ± 0.9 min,63 ± 15 min,31 ± 14%,37 ± 7%,69%,72%,76%,79%
CCCOC(=O)n1cnc([C@@H](C)c2cccc(C)c2C)c1 [Compound 11-HCl],26%,57%,74%,75%,82%,88%,0.026 mg/kg,2.6 ± 0.3 min,47 ± 8 min,*25 ± 7%,41 ± 8%,95%,100%,,
Cc1cccc([C@H](C)c2cn(COC(=O)C(C)(C)C)cn2)c1C [Compound 3-HCl],36%,73%,87%,96%,100%,,0.059 mg/kg,2.6 ± 1.1 min,50 ± 10 min,*13 ± 6%,41 ± 8%,,,,
CCC(=O)OCn1cnc([C@@H](C)c2cccc(C)c2C)c1 [Compound 10-HCl],57%,82%,85%,97%,100%,,0.028 mg/kg,2.3 ± 1.1 min,48 ± 12 min,31 ± 7%,40 ± 8%,,,,
Cc1cccc([C@H](C)c2cn(COP(=O)(O)O)cn2)c1C [Compound 26],29%,31%,32%,33%,34%,35%,0.032 mg/kg,1.7 ± 0.3 min,46 ± 5 min,*15 ± 8%,36 ± 8%,37%,38%,43%,56%
COC(=O)OCn1cnc([C@@H](C)c2cccc(C)c2C)c1 [Compound 13-HCl],16%,44%,67%,79%,90%,96%,0.025 mg/kg,4.1 ± 1.3 min,36 ± 7 min,*16 ± 8%,39 ± 7%,100%,,,
Cc1cccc([C@H](C)c2cn(COC(=O)C3CC3)cn2)c1C [Compound 15-HCl],18%,41%,54%,63%,87%,94%,0.03 mg/kg,3.5 ± 1.2 min,43 ± 9 min,*21 ± 5%,36 ± 6%,100%,,,
CCCC(=O)OCn1cnc([C@@H](C)c2cccc(C)c2C)c1 [Compound 8-HCl],76%,89%,97%,100%,,,0.024 mg/kg,4.1 ± 2.4 min,31 ± 13 min,*18 ± 8%,31 ± 7%,,,,
COC(=O)COC(=O)OCn1cnc([C@@H](C)c2cccc(C)c2C)c1 [Compound 23-HCl],23%,,,,25%,27%,0.051 mg/kg,1.7 ± 0.4 min,61 ± 15 min,29 ± 7%,35 ± 8%,28%,29%,31%,34%
Cc1cccc([C@H](C)c2cn(COC(=O)OC3CCC3)cn2)c1C [Compound 14-HCl],53%,80%,85%,98%,100%,,0.031 mg/kg,3.9 ± 2.1 min,51 ± 7 min,31 ± 6%,36 ± 6%,,,,
CCOC(=O)OCn1cnc([C@@H](C)c2cccc(C)c2C)c1 [Compound 6-HCl],21%,47%,76%,89%,96%,100%,0.03 mg/kg,2.1 ± 1.1 min,45 ± 8 min,*23 ± 9%,36 ± 6%,,,,
Cc1cccc([C@H](C)c2cn(COC(=O)C(C)C)cn2)c1C [Compound 2-HCl],35%,57%,87%,94%,100%,,0.043 mg/kg,1.1 ± 0.2 min,63 ± 15 min,*19 ± 11%,32 ± 5%,,,,
CC(=O)OC(C)n1cnc([C@@H](C)c2cccc(C)c2C)c1 (stereo partly drawn) [Compound 17-HCl],12%,16%,19%,22%,29%,39%,0.029 mg/kg,1.8 ± 0.7 min,42 ± 12 min,*15 ± 4%,35 ± 6%,48%,53%,58%,67%
